Data on eleven molecules can be found in patent publication US11905281B2 (Amgen Inc., priority 2017, dated 2024).

In test [1] the target is GDP-bound KRAS protein (aa 1-169), containing both G12C and C118A amino acid substitutions (Homo sapiens, UniProt P01116, C118A/G12C). Nature of the test: Coupled Nucleotide Exchange Assay (Table 16 conditions: 5 min pre-incubation). In kind it is biochemical. The note with it: 5 min compound pre-incubation; SOS-mediated nucleotide exchange, AlphaScreen. The protocol: (§1) For compounds in Table 16, the following assay conditions were employed:
The assay plates were then read on a PerkinElmer EnVision Multilabel Reader, using AlphaScreen® technology, and data were analyzed using a 4-parameter logistic model to calculate IC50 values.

Test [2] concerns Phosphorylation of ERK1/2 in MIA PaCa-2 cells. Nature of the test: Phospho-ERK1/2 MSD Assay, MIA PaCa-2 (Table 16 conditions: 2 hours compound treatment). In kind it is cell-based. As to conditions: MIA PaCa-2 cells, 10 ng/mL EGF for 10 min, read-out: p-ERK IC50 (MIA PaCa-2). The method, then:
as §1
Sixteen hours prior to compound treatment, MIA PaCa-2 or A549 cells were seeded in 96-well cell culture plates at a density of 25,000 cells/well and incubated at 37° C., 5% CO2. A compound dose-response titration was diluted in growth media, added to appropriate wells of a cell culture plate, and then incubated at 37° C., 5% CO2 for 2 hours. […] Phosphorylation of ERK1/2 in compound-treated lysates was assayed using Phospho-ERK1/2 Whole Cell Lysate kits (Meso Scale Discovery K151DWD) according to the manufacturer's protocol. Assay plates were read on a Meso Scale Discovery Sector Imager 6000, and data were analyzed using a 4-parameter logistic model to calculate IC50 values.

Molecules are shown by their SMILES.

Chain of GDP-bound KRAS protein (aa 1-169), containing both G12C and C118A amino acid substitutions (P01116 1-169 isoform P01116-2 G12C/C118A): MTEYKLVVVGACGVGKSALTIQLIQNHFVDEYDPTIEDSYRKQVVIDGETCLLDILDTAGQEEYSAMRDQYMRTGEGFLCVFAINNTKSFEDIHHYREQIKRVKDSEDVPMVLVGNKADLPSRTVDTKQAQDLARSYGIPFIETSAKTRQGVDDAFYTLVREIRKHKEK

In the case of `C=CC(=O)N1CCN(c2nc(=O)n(-c3c(C)ccnc3C3CC3)c3nc(-c4ccccc4F)c(Cl)cc23)[C@@H](C)C1` (single isomer, unassigned) [Example 45-1], the IC50 (in general, the point on the concentration scale where inhibition reaches its midpoint) in test [1] was 0.089 µM; in test [2], 0.049 µM.

Consider `C=CC(=O)N1CCN(c2nc(=O)n(-c3c(C)ccnc3C3CC3)c3nc(-c4ccccc4F)c(Cl)cc23)[C@@H](C)C1` (single isomer, unassigned) [Example 45-2], for which the half-maximal inhibitory concentration (IC50) in test [1] came to 0.727 µM; in test [2], 0.435 µM.

With `C=CC(=O)N1CCN(c2nc(=O)n(-c3ccccc3C(C)(C)C)c3nc(-c4c(O)cccc4F)c(Cl)cc23)[C@@H](C)C1` (single isomer, unassigned) [Example 49-2], the results for the half-inhibitory concentration (IC50) in test [1] and in test [2] were 0.117 µM and 0.051 µM, respectively.

With `C=CC(=O)N1CCN(c2nc(=O)n(-c3c(C)cnn3C(C)C)c3nc(-c4ccccc4F)c(Cl)cc23)[C@@H](C)C1` (single isomer, unassigned) [Example 53-1], the IC50 worked out at 0.098 µM in test [1] and 0.093 µM in test [2].

Take `C=CC(=O)N1CCN(c2nc(=O)n(-c3c(C)cnn3C(C)C)c3nc(-c4ccccc4F)c(Cl)cc23)[C@@H](C)C1` (single isomer, unassigned) [Example 53-2]: the values for the half-inhibitory concentration (IC50) in test [1] and in test [2] were 0.320 µM and 0.229 µM, respectively.

Turning to `C=CC(=O)N1CCN(c2nc(=O)n(-c3c(C)cccc3C(C)C)c3nc(-c4c(O)cccc4F)c(Cl)cc23)[C@@H](C)C1` [Example 39-1, 6-chloro-7-(2-fluoro-6-hydroxyphenyl)-1-(2-methyl-6-(2-propanyl)phenyl)-4-((2S)-2-methyl-4-(2-propenoyl)-1-piperazinyl)pyrido-[2,3-d]pyrimidin-2(1H)-one], the 50% inhibitory concentration (IC50) in test [1] was 0.025 µM; in test [2], 0.028 µM.

As for `C=CC(=O)N1CCN(c2nc(=O)n(-c3c(C)cccc3C(C)C)c3nc(-c4c(O)cccc4F)c(Cl)cc23)[C@@H](C)C1` [Example 39-2, 6-chloro-7-(2-fluoro-6-hydroxyphenyl)-1-(2-methyl-6-(2-propanyl)phenyl)-4-((2S)-2-methyl-4-(2-propenoyl)-1-piperazinyl)pyrido-[2,3-d]pyrimidin-2(1H)-one], the half-inhibitory concentration (IC50) in test [1] was 0.222 µM; in test [2], 0.195 µM.

Take `C=CC(=O)N1CCN(c2nc(=O)n(-c3c(C)ccnc3C(C)C)c3nc(-c4ccccc4F)c(Cl)cc23)[C@@H](C)C1` [Example 40, 6-Chloro-7-(2-fluorophenyl)-1-(4-methyl-2-(2-propanyl)-3-pyridinyl)-4-((2S)-2-methyl-4-(2-propenoyl)-1-piperazinyl)pyrido[2,3-d]pyrimidin-2(1H)-one]: the half-inhibitory concentration (IC50) is 0.063 µM in test [1] and 0.029 µM in test [2].

As for `C=CC(=O)N1CCN(c2nc(=O)n(-c3c(C)ccnc3C(C)C)c3nc(-c4ccccc4F)c(Cl)cc23)[C@@H](C)C1` [Example 40-1, 6-chloro-7-(2-fluoro-phenyl)-1-(4-methyl-2-(2-propanyl)-3-pyridinyl)-4-((2S)-2-methyl-4-(2-propenoyl)-1-piperazinyl)pyrido-[2,3-d]pyrimidin-2(1H)-one], the IC50 in test [1] worked out at 0.057 µM; in test [2], 0.022 µM.

Turning to `C=CC(=O)N1CCN(c2nc(=O)n(-c3c(C)ccnc3C(C)C)c3nc(-c4ccccc4F)c(Cl)cc23)[C@@H](C)C1` [Example 40-2, 6-chloro-7-(2-fluoro-phenyl)-1-(4-methyl-2-(2-propanyl)-3-pyridinyl)-4-((2S)-2-methyl-4-(2-propenoyl)-1-piperazinyl)pyrido-[2,3-d]pyrimidin-2(1H)-one], the concentration for half-maximal inhibition (IC50) in test [1] amounted to 0.597 µM; in test [2] it was 0.321 µM.

With `C=CC(=O)N1CCN(c2nc(=O)n(-c3c(C)ccnc3C3CC3)c3nc(-c4c(O)cccc4F)c(F)cc23)[C@@H](C)C1` [Example 42, 1-(2-Cyclopropyl-4-methyl-3-pyridinyl)-6-fluoro-7-(2-fluoro-6-hydroxyphenyl)-4-((2S)-2-methyl-4-(2-propenoyl)-1-piperazinyl)pyrido[2,3-d]pyrimidin-2(1H)-one], the half-maximal inhibitory concentration (IC50) in test [1] came to 0.335 µM; in test [2] it was 0.362 µM.
